Measurements as given in patent US20110065632A1, “PHARMACEUTICAL COMPOSITIONS OF SOMATOSTATIN-DOPAMINE CONJUGATES” (priority 2008, published 2011).
Read-outs that look alike come from different tables or passages of the source. Numbered stars: 1 amine (or outer) side, 2 acyl side, 3 side chain; on linkers, the order of the positions; unused ones are H or OH. Bridge positions count the residues as written; N and C are the ends. Square brackets hold non-standard residues; d marks the D form. Peptide text beside a SMILES is read from it. * marks the point of attachment. X1 = CCCN1C[C@H](CSCC(=O)*)C[C@@H]2c3cccc4[nH]cc(c34)C[C@H]21; X2 = CN1C[C@H](CSCC(=O)*)C[C@@H]2c3cccc4[nH]cc(c34)C[C@H]21; Pipz(1-CH2CO,4-CH2CH2NH) = O=C(CN1CCN(CCN[*:1])CC1)[*:2]; Tyr(3-I) = N[C@@H](Cc1ccc(O)c(I)c1)C(=O)O; Abu = CC[C@H](N)C(=O)O; AEEA = NCCOCCOCC(=O)O

What was measured:
hsst1 = biological target: T1, hsst1 (Homo sapiens, UniProt P30872); assay: Somatostatin receptor radioligand binding assay, hsst1; details: CHO-K1 membranes, [125I-Tyr11]SS-14; read-out: hsst1 Ki
T1 construct: expressed in transfected cells
T1 sequence (P30872 whole entry): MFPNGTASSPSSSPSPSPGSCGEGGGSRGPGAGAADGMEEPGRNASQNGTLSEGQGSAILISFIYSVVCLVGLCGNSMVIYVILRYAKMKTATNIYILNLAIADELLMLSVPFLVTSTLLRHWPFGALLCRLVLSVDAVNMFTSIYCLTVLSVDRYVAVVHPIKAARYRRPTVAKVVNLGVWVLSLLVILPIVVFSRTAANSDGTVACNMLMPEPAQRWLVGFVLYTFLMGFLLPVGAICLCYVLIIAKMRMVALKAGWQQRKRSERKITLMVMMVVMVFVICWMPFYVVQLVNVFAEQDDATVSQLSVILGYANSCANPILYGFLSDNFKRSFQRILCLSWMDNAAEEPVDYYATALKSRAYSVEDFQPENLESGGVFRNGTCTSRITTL
Experimental: (§1) Specificity and selectivity of the somatostatin analogues used to synthesize the somatostatin-dopamine chimers were determined by a radioligand binding assay on CHO-K1 cells stably transfected with each of the SSTR subtypes, as follows. Somatostatin analogs are also described in U.S. Patent Application Publication No. 02210006790. The complete coding sequences of genomic fragments of the SSTR 1 (e.g., Genbank accession No. M81829), SSTR 2 (e.g., Genbank accession No. M81830), SSTR 3 (e.g., Genbank accession No. L07062), and SSTR 4 (e.g., Genbank accession No. AL049651) genes and a cDNA clone for SSTR 5 (e.g., Genbank accession No. D16827) was subcloned into the mammalian expression vector pCMV (Life Technologies, Milano, Italy). Other SSTR sequences are known to the skilled artisan. Clonal cell lines stably expressing SSTR's 1-5 were obtained by transfection into CHO-K1 cells (ATCC, Manassas, Va., USA) using the calcium phosphate co-precipitation method (Davis L, et al., 1994 In: Basic methods in Molecular Biology, 2nd edition, Appleton & Lange, Norwalk, Conn., USA: 611-646). The plasmid pRSV-neo (ATCC) was included as a selectable marker. Clonal cell lines were selected in RPMI 1640 media containing 0.5 mg/mL of G418 (Life Technologies, Milano, Italy), ring cloned, and expanded into culture.
(§2) Membranes for in vitro receptor binding assays were obtained by homogenizing the CHO-K1 cells expressing the SSTR's subtypes in ice-cold 50 mM Tris-HCl and centrifuging twice at 39,000 g (10 min), with an intermediate resuspension in fresh buffer. The final pellets were resuspended in 10 mM Tris-HCl for assay.
(§3) For the SSTR 1, 3, 4, and 5 assays, aliquots of the membrane preparations were incubated 90 minutes at 25° C. with 0.05 nM [^125I-Tyr11]SS-14 in 50 mM HEPES (pH 7.4) containing 10 mg/mL BSA, 5 mM MgCl2, 200 KIU/mL Trasylol, 0.02 mg/mL bacitracin, and 0.02 mg/mL phenylmethylsuphonyl fluoride. The final assay volume was 0.3 mL.
(§4) For the SSTR 2 assay, 0.05 nM [^125I]MK-678 was employed as the radioligand and the incubation time was 90 minutes at 25° C. The incubations were terminated by rapid filtration through GF/C glass microfiber filters (Whatman Co.) (pre-soaked in 0.3% polyethylenimine) using a BRANDEL filtration manifold. Each tube and filter was washed three times with 5 mL aliquots of ice-cold buffer. Specific binding was defined as the total radioligand bound minus that bound in the presence of 1000 nM SS-14 for SSTR 1, 3, 4, and 5, or 1000 nM MK-678 for SSTR2.
(§5) Using the discussed assays, the inhibition constants (Ki) for the five human somatostatin receptors (hSSTR1-hSSTR5) and the dopamine-2 receptor (hUTII and hDA2) were measured for the exemplified somatostatin-dopamine conjugates, as follows: […]

hsst2 = biological target: T2, hsst2 (Homo sapiens, UniProt P30874); assay: Somatostatin receptor radioligand binding assay, hsst2; details: CHO-K1 membranes, [125I]MK-678; read-out: hsst2 Ki
T2 construct: expressed in transfected cells
T2 sequence (P30874 whole entry): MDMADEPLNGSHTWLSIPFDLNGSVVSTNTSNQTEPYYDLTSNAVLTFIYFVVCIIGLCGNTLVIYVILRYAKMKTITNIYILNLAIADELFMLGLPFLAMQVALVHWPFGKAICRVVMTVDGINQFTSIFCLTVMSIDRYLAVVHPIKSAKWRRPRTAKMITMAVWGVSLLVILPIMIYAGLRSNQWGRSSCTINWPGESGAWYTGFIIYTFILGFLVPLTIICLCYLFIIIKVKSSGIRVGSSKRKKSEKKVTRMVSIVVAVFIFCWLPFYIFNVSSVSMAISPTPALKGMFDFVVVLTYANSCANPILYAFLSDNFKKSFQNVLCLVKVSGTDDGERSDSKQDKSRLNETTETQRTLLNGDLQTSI
Experimental: as §1, §2, §4

hsst3 = biological target: T3, hsst3 (Homo sapiens, UniProt P32745); assay: Somatostatin receptor radioligand binding assay, hsst3
T3 construct: expressed in transfected cells
T3 sequence (P32745 whole entry): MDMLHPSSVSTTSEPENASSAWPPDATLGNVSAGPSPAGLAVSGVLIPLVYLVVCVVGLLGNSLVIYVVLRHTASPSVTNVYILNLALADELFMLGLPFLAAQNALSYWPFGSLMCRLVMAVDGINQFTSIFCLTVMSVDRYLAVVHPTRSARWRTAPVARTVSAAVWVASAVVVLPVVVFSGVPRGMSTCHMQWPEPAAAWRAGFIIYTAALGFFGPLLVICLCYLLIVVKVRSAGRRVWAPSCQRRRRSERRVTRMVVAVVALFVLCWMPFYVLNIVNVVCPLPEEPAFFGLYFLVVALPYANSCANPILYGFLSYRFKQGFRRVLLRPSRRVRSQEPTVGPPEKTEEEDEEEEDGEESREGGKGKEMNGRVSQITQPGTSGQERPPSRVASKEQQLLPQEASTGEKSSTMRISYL
Experimental: as §1, §2, §3, §4, §5

hUTII = biological target: T4, hUTII (Homo sapiens, UniProt Q9UKP6); assay: hUTII inhibition constant; assay type: binding; details: read-out: hUTII Ki
T4 sequence (Q9UKP6 1-389): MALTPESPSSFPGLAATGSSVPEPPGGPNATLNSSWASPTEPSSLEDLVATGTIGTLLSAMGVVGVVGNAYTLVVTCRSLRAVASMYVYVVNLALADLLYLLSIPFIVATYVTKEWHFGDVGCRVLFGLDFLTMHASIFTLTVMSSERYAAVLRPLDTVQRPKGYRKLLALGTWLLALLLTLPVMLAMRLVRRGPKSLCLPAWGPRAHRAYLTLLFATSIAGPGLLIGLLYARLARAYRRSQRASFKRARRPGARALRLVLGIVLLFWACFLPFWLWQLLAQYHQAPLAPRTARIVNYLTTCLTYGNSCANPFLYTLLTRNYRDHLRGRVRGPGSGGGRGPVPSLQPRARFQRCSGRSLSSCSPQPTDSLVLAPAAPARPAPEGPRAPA
Experimental: as §5

hDA2 = assay: Dopamine-2 receptor radioligand binding assay; design: species or system human; details: [3H]spiperone
Experimental: Specificity and selectivity for the dopamine-2 receptor of the dopamine analogues used to synthesize the somatostatin-dopamine chimers may be determined by a radioligand binding assay as follows.
Crude membranes were prepared by homogenization of frozen rat corpus striatum (Zivic Laboratories, Pittsburgh, Pa., USA) in 20 mL of ice-cold 50 mM Tris-HCl with a Brinkman Polytron cell disrupter (setting 6, 15 sec). Buffer was added to obtain a final volume of 40 mL, and the homogenate was centrifuged in a Sorval SS-34 rotor at 39,000 g for 10 minutes at 0-4° C. The resulting supernatant was decanted and discarded. The pellet was rehomogenized in ice-cold buffer, pre-incubated at 37° C. for 10 min, diluted, and centrifuged as before. The final pellet was resuspended in buffer and held on ice for the receptor binding assay.
For assay, aliquots of the washed membrane preparations and test compounds were incubated for 15 minutes (37° C.) with 0.25 nM [^3HI]spiperone (16.5 Ci.mmol, New England Nuclear, Boston, Mass., USA) in 50 mM Tris HCl, 120 mM NaCl, 5 mM KCl, 2 mM CaCl2, 1 mM MgCl2. The final assay volume was 1.0 mL. The incubations were terminated by rapid filtration through GF/B glass fibre filters using a Brandel filtration manifold. Each tube and filter was then washed three times with 5-mL aliquots of ice-cold buffer. Specific binding was defined as the total radioligand bound minus that bound in the presence of 1000 nM (+) butaclamol.
as §5

hsst5 = biological target: T5, hsst5 (Homo sapiens, UniProt P35346); assay: Somatostatin receptor radioligand binding assay, hsst5; details: CHO-K1 membranes, [125I-Tyr11]SS-14
T5 construct: expressed in transfected cells
T5 sequence (P35346 whole entry): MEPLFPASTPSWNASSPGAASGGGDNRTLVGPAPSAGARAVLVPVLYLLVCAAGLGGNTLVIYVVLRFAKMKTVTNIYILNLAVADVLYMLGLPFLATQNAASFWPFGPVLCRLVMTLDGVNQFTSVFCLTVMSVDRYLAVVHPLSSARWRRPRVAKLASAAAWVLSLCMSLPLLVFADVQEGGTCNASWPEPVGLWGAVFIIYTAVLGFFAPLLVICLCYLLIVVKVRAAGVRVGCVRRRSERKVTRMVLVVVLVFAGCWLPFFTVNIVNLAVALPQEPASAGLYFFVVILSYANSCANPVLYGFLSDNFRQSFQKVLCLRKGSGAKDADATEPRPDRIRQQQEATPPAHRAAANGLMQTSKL
Experimental: as §1, §2, §3, §4

[1] = CHO-K1 membranes, [125I-Tyr11]SS-14, read-out: hsst3 Ki

Row | SMILES | Ki (hsst1) [µM] | Ki (hsst2) [µM] | Ki (hsst3; [1]) [µM] | Ki (hUTII) [µM] | Ki (hDA2) [µM] | Ki (hsst5; read-out: hsst5 Ki) [µM] | Ki (hsst3) [µM] | Ki (hsst5; hsst5 Ki) [µM]
1 | CC[C@@H]1NC(=O)[C@H](CCCCN)NC(=O)[C@@H](Cc2c[nH]c3ccccc23)NC(=O)[C@H](Cc2ccc(O)cc2)NC(=O)[C@@H](NC(=O)[C@@H](Cc2ccccc2)NC(=O)CN2CCN(CCNC(=O)CSC[C@@H]3C[C@@H]4c5cccc6[nH]cc(c56)C[C@H]4N(C)C3)CC2)CSSC[C@@H](C(=O)N[C@H](C(N)=O)[C@@H](C)O)NC1=O [Example 38] |  | 0.00035 | 0.0619 | 1.19 | 0.411 | 0.0281 |  | 
2 | CCCN1C[C@H](CSCC(=O)NCCCC[C@@H](NC(=O)CSC[C@@H]2C[C@@H]3c4cccc5[nH]cc(c45)C[C@H]3N(CCC)C2)C(=O)N[C@H](Cc2ccc(O)cc2)C(=O)N[C@H](Cc2ccc(O)cc2)C(=O)N[C@H]2CSSC[C@@H](C(=O)N[C@H](C(N)=O)[C@@H](C)O)NC(=O)[C@H]([C@@H](C)O)NC(=O)[C@H](CCCCN)NC(=O)[C@@H](Cc3c[nH]c4ccccc34)NC(=O)[C@H](Cc3ccc(O)c(I)c3)NC2=O)C[C@@H]2c3cccc4[nH]cc(c34)C[C@H]21 [Example 16] (X1-[dK](X1)[dY][dY]C[Tyr(3-I)][dW]KTCT-NH2; disulfide 4-9) |  | 0.00016 | 0.0764 | 0.549 | 0.00856 | 0.00743 |  | 
3 | CC[C@@H]1NC(=O)[C@H](CCCCN)NC(=O)[C@@H](Cc2c[nH]c3ccccc23)NC(=O)[C@H](Cc2ccc(O)cc2)NC(=O)[C@@H](NC(=O)[C@@H](Cc2ccc(O)cc2)NC(=O)[C@@H](Cc2ccc(O)cc2)NC(=O)[C@H](CCCCN)NC(=O)CN2CCN(CCNC(=O)CSC[C@@H]3C[C@@H]4c5cccc6[nH]cc(c56)C[C@H]4N(C)C3)CC2)CSSC[C@@H](C(=O)N[C@H](C(N)=O)[C@@H](C)O)NC1=O [Example 32] (X2-[Pipz(1-CH2CO,4-CH2CH2NH)]K[dY][dY]CY[dW]K[Abu]CT-NH2; disulfide 5-10) |  | 0.00022 |  | 0.267 | 0.136 |  | 0.0456 | 0.0138
4 | CC[C@@H]1NC(=O)[C@H](CCCCN)NC(=O)[C@@H](Cc2c[nH]c3ccccc23)NC(=O)[C@H](Cc2ccc(O)cc2)NC(=O)[C@@H](NC(=O)[C@@H](Cc2ccc(O)cc2)NC(=O)[C@@H](Cc2ccc(O)cc2)NC(=O)[C@H](CCCCN)NC(=O)CSC[C@@H]2C[C@@H]3c4cccc5[nH]cc(c45)C[C@H]3N(C)C2)CSSC[C@@H](C(=O)N[C@H](C(N)=O)[C@@H](C)O)NC1=O [Example 33] (X2-K[dY][dY]CY[dW]K[Abu]CT-NH2; disulfide 4-9) |  | 0.0002 |  | 0.0377 | 0.206 |  | 0.0651 | 0.00982
5 | CC[C@@H]1NC(=O)[C@H](CCCCN)NC(=O)[C@@H](Cc2c[nH]c3ccccc23)NC(=O)[C@H](Cc2ccc(O)cc2)NC(=O)[C@@H](NC(=O)[C@@H](Cc2ccc(O)cc2)NC(=O)[C@@H](Cc2ccc(O)cc2)NC(=O)[C@H](CCCCN)NC(=O)COCCOCCNC(=O)CSC[C@@H]2C[C@@H]3c4cccc5[nH]cc(c45)C[C@H]3N(C)C2)CSSC[C@@H](C(=O)N[C@H](C(N)=O)[C@@H](C)O)NC1=O [Example 34] ({X2-AEEA}-K[dY][dY]CY[dW]K[Abu]CT-NH2; disulfide 4-9) |  | 0.00023 |  | 0.211 | 0.114 |  | 0.0485 | 0.0086

Continued, in another order:

Row | Ki (hsst1) [µM] | Ki (hsst2) [µM] | Ki (hsst3; [1]) [µM] | Ki (hUTII) [µM] | Ki (hDA2) [µM] | Ki (hsst5; read-out: hsst5 Ki) [µM] | SMILES | Ki (hsst3) [µM] | Ki (hsst5; hsst5 Ki) [µM]
6 | 0.731 | 0.0004 | 0.135 | 0.0532 | 0.034 |  | CCCN1C[C@H](CSCC(=O)N[C@H](Cc2ccccc2)C(=O)N[C@H]2CSSC[C@@H](C(=O)N[C@H](C(N)=O)[C@@H](C)O)NC(=O)[C@H](C(C)C)NC(=O)[C@H](CCCCN)NC(=O)[C@@H](Cc3c[nH]c4ccccc34)NC(=O)[C@H](Cc3ccc(O)c(I)c3)NC2=O)C[C@@H]2c3cccc4[nH]cc(c34)C[C@H]21 [Example 26] |  | 
7 | 1 | 0.00037 | 0.235 | 0.0735 | 0.0167 |  | CCCN1C[C@H](CSCC(=O)N[C@H](Cc2ccccc2)C(=O)N[C@H]2CSSC[C@@H](C(=O)N[C@H](C(N)=O)[C@@H](C)O)NC(=O)[C@H](C(C)C)NC(=O)[C@H](CCCCN)NC(=O)[C@@H](Cc3c[nH]c4ccccc34)NC(=O)[C@H](Cc3ccc(OC(=O)CSC[C@@H]4C[C@@H]5c6cccc7[nH]cc(c67)C[C@H]5N(CCC)C4)c(I)c3)NC2=O)C[C@@H]2c3cccc4[nH]cc(c34)C[C@H]21 [Example 3] |  | 
8 | 1 | 0.00084 | 0.397 | 0.0837 | 0.0296 |  | CCCN1C[C@H](CSCC(=O)N[C@H](Cc2ccccc2)C(=O)NCCOCCOCC(=O)N[C@H](Cc2ccccc2)C(=O)N[C@H]2CSSC[C@@H](C(=O)N[C@H](C(N)=O)[C@@H](C)O)NC(=O)[C@H](C(C)C)NC(=O)[C@H](CCCCN)NC(=O)[C@@H](Cc3c[nH]c4ccccc34)NC(=O)[C@H](Cc3ccc(O)c(I)c3)NC2=O)C[C@@H]2c3cccc4[nH]cc(c34)C[C@H]21 [Example 4] |  | 
9 | 0.907 |  | 0.196 |  | 0.0152 | 0.0107 | CCCN1C[C@H](CSCC(=O)NCCCC[C@@H](NC(=O)CSC[C@@H]2C[C@@H]3c4cccc5[nH]cc(c45)C[C@H]3N(CCC)C2)C(=O)N[C@H](Cc2ccccc2)C(=O)N[C@H]2CSSC[C@@H](C(=O)N[C@H](C(N)=O)[C@@H](C)O)NC(=O)[C@H]([C@@H](C)O)NC(=O)[C@H](CCCCN)NC(=O)[C@@H](Cc3c[nH]c4ccccc34)NC(=O)[C@H](Cc3ccc(O)c(I)c3)NC2=O)C[C@@H]2c3cccc4[nH]cc(c34)C[C@H]21 [Example 13] |  | 
10 | 1 | 0.00109 | 0.423 | 0.233 | 0.345 |  | CCCN1C[C@H](CSCC(=O)NCCN2CCN(CC(=O)N[C@H](Cc3ccccc3)C(=O)N[C@H]3CSSC[C@@H](C(=O)N[C@H](C(N)=O)[C@@H](C)O)NC(=O)[C@H](C(C)C)NC(=O)[C@H](CCCCN)NC(=O)[C@@H](Cc4c[nH]c5ccccc45)NC(=O)[C@H](Cc4ccc(O)c(I)c4)NC3=O)CC2)C[C@@H]2c3cccc4[nH]cc(c34)C[C@H]21 [Example 25] |  | 
